Drawing on US20220144848A1, “SUBSTITUTED OXOPYRIDINE DERIVATIVES” (Bayer Aktiengesellschaft, priority 2018, published 2022), this text covers IC50 for seven compounds.

One test concerns the target T1, human plasma kallikrein (Homo sapiens, UniProt P03952).
T1 construct: purchased Kordia
As to the kind of experiment: Determination of the plasma kallikrein activity (fluorogenic peptide substrate H-Pro-Phe-Arg-AMC). The test is classed as biochemical. As to conditions: plasma kallikrein from Kordia, 15 min preincubation, 30 min at 22° C., fluorescence; some as mean values from multiple determinations.

For another test, the target named is T2, human factor XIa (Homo sapiens, UniProt P03951).
T2 construct: purchased Kordia
As to the kind of experiment: Measurement of FXIa inhibition (fluorogenic peptide substrate Boc-Glu(OBzl)-Ala-Arg-AMC). The test is classed as biochemical. The note with it: factor XIa from Kordia, 15 min preincubation, 30 min at 22° C., fluorescence; some as mean values from multiple determinations.

T2 sequence (P03951 388-625 limits assumed): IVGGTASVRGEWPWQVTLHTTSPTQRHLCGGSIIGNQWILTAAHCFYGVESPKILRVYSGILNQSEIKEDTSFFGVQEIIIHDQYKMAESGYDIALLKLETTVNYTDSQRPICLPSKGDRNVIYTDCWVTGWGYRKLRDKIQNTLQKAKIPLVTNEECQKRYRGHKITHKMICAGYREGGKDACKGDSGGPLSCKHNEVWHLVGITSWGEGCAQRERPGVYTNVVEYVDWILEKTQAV
T2 sequence (P03951 19-387 partner limits assumed): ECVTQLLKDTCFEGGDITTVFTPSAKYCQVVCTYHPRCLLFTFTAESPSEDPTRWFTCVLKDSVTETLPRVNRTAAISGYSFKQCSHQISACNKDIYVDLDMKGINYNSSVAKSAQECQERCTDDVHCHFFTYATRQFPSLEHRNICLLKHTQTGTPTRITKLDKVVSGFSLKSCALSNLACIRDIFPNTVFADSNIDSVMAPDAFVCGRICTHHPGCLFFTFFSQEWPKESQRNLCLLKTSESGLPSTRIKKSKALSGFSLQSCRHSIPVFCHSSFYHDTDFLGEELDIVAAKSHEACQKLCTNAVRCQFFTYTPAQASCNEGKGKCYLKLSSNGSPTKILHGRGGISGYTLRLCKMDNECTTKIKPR
T1 sequence (P03952 391-638 limits assumed): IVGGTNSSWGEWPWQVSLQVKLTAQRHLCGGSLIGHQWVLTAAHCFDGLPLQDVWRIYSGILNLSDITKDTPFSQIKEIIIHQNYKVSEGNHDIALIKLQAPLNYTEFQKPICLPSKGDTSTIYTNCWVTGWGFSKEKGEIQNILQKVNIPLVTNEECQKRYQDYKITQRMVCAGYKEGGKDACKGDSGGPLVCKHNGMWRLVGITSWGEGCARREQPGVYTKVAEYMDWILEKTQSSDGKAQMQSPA
T1 sequence (P03952 20-390 partner limits assumed): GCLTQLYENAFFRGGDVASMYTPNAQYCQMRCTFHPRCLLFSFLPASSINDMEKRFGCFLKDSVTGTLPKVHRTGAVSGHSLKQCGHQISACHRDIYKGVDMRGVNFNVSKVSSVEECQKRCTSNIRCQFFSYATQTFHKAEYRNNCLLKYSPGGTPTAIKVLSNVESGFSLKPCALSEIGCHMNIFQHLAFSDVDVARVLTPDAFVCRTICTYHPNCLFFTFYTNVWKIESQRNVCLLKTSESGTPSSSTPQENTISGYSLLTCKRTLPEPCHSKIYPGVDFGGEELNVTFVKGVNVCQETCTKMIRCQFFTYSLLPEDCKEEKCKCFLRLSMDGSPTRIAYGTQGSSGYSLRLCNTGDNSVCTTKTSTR

In the case of `C[C@@H]1Cc2ccc(Cl)cc2-c2cc(=O)n([C@@H](C[C@@H]3CCCCO3)C(=O)Nc3ccc(C(N)=O)c(F)c3)cc2CO1` (single isomer, unassigned) [Example 2], the IC50 (usually the concentration at which inhibition is half-maximal) on human plasma kallikrein is 0.32 µM; on human factor XIa, 0.0055 µM.

Take `CC(C)C1Cc2ccc(Cl)cc2-c2cc(=O)n(C(C[C@@H]3COCCO3)C(=O)Nc3ccc(C(N)=O)c(F)c3)cc2CO1` (mixture of isomers) [Example 40, 4-({2-(11-Chloro-7-isopropyl-2-oxo-7,8-dihydro-2H-[3]benzoxocino[5,6-c]pyridin-3(5H)-yl)-3-[(2R)-1,4-dioxan-2-yl]propanoyl}amino)-2-fluorobenzamide]: the concentration for half-maximal inhibition (IC50) came out at 4.8 µM against human plasma kallikrein and 0.041 µM on human factor XIa.

Consider `NC(=O)c1ccc(NC(=O)C(C[C@@H]2CCCCO2)n2cc3c(cc2=O)-c2cc(Cl)ccc2CC(C(F)(F)F)OC3)cn1` (mixture of isomers) [Example 52, 5-({2-[11-Chloro-2-oxo-7-(trifluoromethyl)-7,8-dihydro-2H-[3]benzoxocino[5,6-c]pyridin-3(5H)-yl]-3-[(2S)-tetrahydro-2H-pyran-2-yl]propanoyl}amino)pyridine-2-carboxamide], for which the IC50 against human plasma kallikrein was 0.79 µM; against human factor XIa, 0.0065 µM.

`NC(=O)c1ccc(NC(=O)[C@H](C[C@@H]2COCCO2)n2cc3c(cc2=O)-c2cc(Cl)ccc2C[C@@H](C(F)(F)F)OC3)cc1F` (single isomer, unassigned) [Example 57]: the IC50 on human plasma kallikrein was found to be 0.31 µM; on human factor XIa, 0.0038 µM.

For `COCCC(C(=O)Nc1ccc(C(N)=O)cc1)n1cc2c(cc1=O)-c1cc(Cl)ccc1CC(C(F)(F)F)OC2` (mixture of isomers) [Example 62, 4-({2-[11-Chloro-2-oxo-7-(trifluoromethyl)-7,8-dihydro-2H-[3]benzoxocino[5,6-c]pyridin-3(5H)-yl]-4-methoxybutanoyl}amino)benzamide], the values for the IC50 on human plasma kallikrein and against human factor XIa were 0.42 µM and 0.0081 µM, respectively.

With `NC(=O)c1ccc(NC(=O)C(C[C@@H]2COCCO2)n2cc3c(cc2=O)-c2cc(Cl)ccc2CC(CO)OC3)cc1` (mixture of isomers) [Example 36, 4-{2-[11-Chloro-7-(hydroxymethyl)-2-oxo-7,8-dihydro-2H-[3]benzoxocino[5,6-c]pyridin-3(5H)-yl]-3-[(2R)-1,4-dioxan-2-yl]propanamido}benzamide], the figures for the IC50 at human plasma kallikrein and on human factor XIa were 1 µM and 0.012 µM, respectively.

`NC(=O)c1ccc(NC(=O)[C@H](C[C@@H]2CCCCO2)n2cc3c(cc2=O)-c2cc(Cl)ccc2C[C@@H](C(F)(F)F)OC3)cc1` (single isomer, unassigned) [Example 55]: the figures for the IC50 against human plasma kallikrein and against human factor XIa were 0.091 µM and 0.0005 µM, respectively.
